Laboratory results: patent US20240180221A1, “METHODS AND COMPOSITIONS FOR IMPROVED TASTE QUALITY” (ALMENDRA PTE. LTD., priority 2021, published 2024)

System: human taste testers
Assay: Tasting of amino acid solutions in citric acid buffer for bitterness, with and without taste modulator
Format: in vivo
Conditions: for bitterness intensity: 7.5 mM solution in pH 3.2 CAB, 0-15 intensity scale; for Bitter Taste Threshold in CAB: pH 3.2 Citric Acid Buffer, serial dilutions from 30 mM to 1.88 mM tasted in ascending order

N[C@@H](Cc1ccccc1)C(=O)O [L-Phe, L-Phenylalanine]
bitterness intensity: 5
Bitter Taste Threshold in CAB: ca. 3 mM

N[C@@H](Cc1c[nH]c2ccccc12)C(=O)O [L-Trp, L-Tryptophan]
bitterness intensity: 5
bitterness onset and linger (in pH 3.2 CAB): noticeably slow in onset and quite lingering
Bitter Taste Threshold in CAB: ca. 3 mM
